Experimental data: patent publication US20030186434A1, “Method of forming vertebrate pancreas in vitro” (priority 2002, published 2003)

Test system: blastopore upper lip of early gastrula of a Xenopus
Assay: Tissue differentiation of blastopore upper lip cultured continuously in retinoic acid solution for 10 days
Format: cell-based
Conditions: for Atypical epidermis differentiated, specimens (%) / Cartilage differentiated, specimens (%) / Cement gland differentiated, specimens (%) / Coelomic epithelium differentiated, specimens (%) / Ear vesicle differentiated, specimens (%) / Epidermis differentiated, specimens (%) / Eye or its fragments differentiated, specimens (%) / Gastric gland differentiated, specimens (%) / Hemocyte differentiated, specimens (%) / Intestinal epithelium differentiated, specimens (%) / Mesenchyme differentiated, specimens (%) / Muscle differentiated, specimens (%) / Neural tissue differentiated, specimens (%) / Notochord differentiated, specimens (%) / Pancreas differentiated, specimens (%) / Pharyngeal epithelium differentiated, specimens (%) / Pronephros differentiated, specimens (%) / Yolk-rich cell differentiated, specimens (%): continuous 10 days

What does the source list for `CC1=C(/C=C/C(C)=C/C=C/C(C)=C/C(=O)O)C(C)(C)CCC1` [Retinoic acid, retinoic acid]?
survival of explants while being cultured (10^−4 M, continuous treatment): all the explants died; Atypical epidermis differentiated, specimens (%) (10^−5 M, 17 specimens): 0 (0); Cartilage differentiated, specimens (%) (10^−5 M, 17 specimens): 0 (0); Cement gland differentiated, specimens (%) (10^−5 M, 17 specimens): 0 (0); Coelomic epithelium differentiated, specimens (%) (10^−5 M, 17 specimens): 2 (12); Ear vesicle differentiated, specimens (%) (10^−5 M, 17 specimens): 0 (0); Epidermis differentiated, specimens (%) (10^−5 M, 17 specimens): 7 (41); Eye or its fragments differentiated, specimens (%) (10^−5 M, 17 specimens): 0 (0); Gastric gland differentiated, specimens (%) (10^−5 M, 17 specimens): 0 (0); Hemocyte differentiated, specimens (%) (10^−5 M, 17 specimens): 0 (0); Intestinal epithelium differentiated, specimens (%) (10^−5 M, 17 specimens): 8 (47); Mesenchyme differentiated, specimens (%) (10^−5 M, 17 specimens): 8 (47); Muscle differentiated, specimens (%) (10^−5 M, 17 specimens): 0 (0); Neural tissue differentiated, specimens (%) (10^−5 M, 17 specimens): 0 (0); Notochord differentiated, specimens (%) (10^−5 M, 17 specimens): 14 (82); Pancreas differentiated, specimens (%) (10^−5 M, 17 specimens): 2 (12); Pharyngeal epithelium differentiated, specimens (%) (10^−5 M, 17 specimens): 5 (29); Pronephros differentiated, specimens (%) (10^−5 M, 17 specimens): 0 (0); Yolk-rich cell differentiated, specimens (%) (10^−5 M, 17 specimens): 15 (88); Atypical epidermis differentiated, specimens (%) (10^−6 M, 16 specimens): 0 (0); Cartilage differentiated, specimens (%) (10^−6 M, 16 specimens): 0 (0); Cement gland differentiated, specimens (%) (10^−6 M, 16 specimens): 0 (0); Coelomic epithelium differentiated, specimens (%) (10^−6 M, 16 specimens): 2 (13); Ear vesicle differentiated, specimens (%) (10^−6 M, 16 specimens): 0 (0); Epidermis differentiated, specimens (%) (10^−6 M, 16 specimens): 1 (6); Eye or its fragments differentiated, specimens (%) (10^−6 M, 16 specimens): 0 (0); Gastric gland differentiated, specimens (%) (10^−6 M, 16 specimens): 2 (13); Hemocyte differentiated, specimens (%) (10^−6 M, 16 specimens): 0 (0); Intestinal epithelium differentiated, specimens (%) (10^−6 M, 16 specimens): 14 (88); Mesenchyme differentiated, specimens (%) (10^−6 M, 16 specimens): 13 (81); Muscle differentiated, specimens (%) (10^−6 M, 16 specimens): 3 (19); Neural tissue differentiated, specimens (%) (10^−6 M, 16 specimens): 0 (0); Notochord differentiated, specimens (%) (10^−6 M, 16 specimens): 14 (88); Pancreas differentiated, specimens (%) (10^−6 M, 16 specimens): 1 (6); Pharyngeal epithelium differentiated, specimens (%) (10^−6 M, 16 specimens): 3 (19); Pronephros differentiated, specimens (%) (10^−6 M, 16 specimens): 0 (0); Yolk-rich cell differentiated, specimens (%) (10^−6 M, 16 specimens): 14 (88); Atypical epidermis differentiated, specimens (%) (10^−7 M, 15 specimens): 0 (0); Cartilage differentiated, specimens (%) (10^−7 M, 15 specimens): 0 (0); Cement gland differentiated, specimens (%) (10^−7 M, 15 specimens): 0 (0); Coelomic epithelium differentiated, specimens (%) (10^−7 M, 15 specimens): 9 (60); Ear vesicle differentiated, specimens (%) (10^−7 M, 15 specimens): 0 (0); Epidermis differentiated, specimens (%) (10^−7 M, 15 specimens): 8 (53); Eye or its fragments differentiated, specimens (%) (10^−7 M, 15 specimens): 0 (0); Gastric gland differentiated, specimens (%) (10^−7 M, 15 specimens): 3 (20); Hemocyte differentiated, specimens (%) (10^−7 M, 15 specimens): 0 (0); Intestinal epithelium differentiated, specimens (%) (10^−7 M, 15 specimens): 5 (33); Mesenchyme differentiated, specimens (%) (10^−7 M, 15 specimens): 9 (60); Muscle differentiated, specimens (%) (10^−7 M, 15 specimens): 4 (27); Neural tissue differentiated, specimens (%) (10^−7 M, 15 specimens): 2 (13); Notochord differentiated, specimens (%) (10^−7 M, 15 specimens): 14 (93); Pancreas differentiated, specimens (%) (10^−7 M, 15 specimens): 1 (7); Pharyngeal epithelium differentiated, specimens (%) (10^−7 M, 15 specimens): 9 (60); Pronephros differentiated, specimens (%) (10^−7 M, 15 specimens): 1 (7); Yolk-rich cell differentiated, specimens (%) (10^−7 M, 15 specimens): 13 (87); Atypical epidermis differentiated, specimens (%) (10^−8 M, 20 specimens): 0 (0); Cartilage differentiated, specimens (%) (10^−8 M, 20 specimens): 9 (45); Cement gland differentiated, specimens (%) (10^−8 M, 20 specimens): 0 (0); Coelomic epithelium differentiated, specimens (%) (10^−8 M, 20 specimens): 6 (30); Ear vesicle differentiated, specimens (%) (10^−8 M, 20 specimens): 0 (0); Epidermis differentiated, specimens (%) (10^−8 M, 20 specimens): 19 (95); Eye or its fragments differentiated, specimens (%) (10^−8 M, 20 specimens): 0 (0); Gastric gland differentiated, specimens (%) (10^−8 M, 20 specimens): 0 (0); Hemocyte differentiated, specimens (%) (10^−8 M, 20 specimens): 0 (0); Intestinal epithelium differentiated, specimens (%) (10^−8 M, 20 specimens): 2 (10); Mesenchyme differentiated, specimens (%) (10^−8 M, 20 specimens): 19 (95); Muscle differentiated, specimens (%) (10^−8 M, 20 specimens): 12 (60); Neural tissue differentiated, specimens (%) (10^−8 M, 20 specimens): 7 (35); Notochord differentiated, specimens (%) (10^−8 M, 20 specimens): 17 (85); Pancreas differentiated, specimens (%) (10^−8 M, 20 specimens): 1 (5); Pharyngeal epithelium differentiated, specimens (%) (10^−8 M, 20 specimens): 12 (60); Pronephros differentiated, specimens (%) (10^−8 M, 20 specimens): 0 (0); Yolk-rich cell differentiated, specimens (%) (10^−8 M, 20 specimens): 9 (45); Atypical epidermis differentiated, specimens (%) (10^−9 M, 11 specimens): 0 (0); Cartilage differentiated, specimens (%) (10^−9 M, 11 specimens): 5 (45); Cement gland differentiated, specimens (%) (10^−9 M, 11 specimens): 0 (0); Coelomic epithelium differentiated, specimens (%) (10^−9 M, 11 specimens): 5 (45); Ear vesicle differentiated, specimens (%) (10^−9 M, 11 specimens): 0 (0); Epidermis differentiated, specimens (%) (10^−9 M, 11 specimens): 11 (100); Eye or its fragments differentiated, specimens (%) (10^−9 M, 11 specimens): 0 (0); Gastric gland differentiated, specimens (%) (10^−9 M, 11 specimens): 0 (0); Hemocyte differentiated, specimens (%) (10^−9 M, 11 specimens): 0 (0); Intestinal epithelium differentiated, specimens (%) (10^−9 M, 11 specimens): 0 (0); Mesenchyme differentiated, specimens (%) (10^−9 M, 11 specimens): 10 (91); Muscle differentiated, specimens (%) (10^−9 M, 11 specimens): 9 (82); Neural tissue differentiated, specimens (%) (10^−9 M, 11 specimens): 9 (82); Notochord differentiated, specimens (%) (10^−9 M, 11 specimens): 11 (100); Pancreas differentiated, specimens (%) (10^−9 M, 11 specimens): 0 (0); Pharyngeal epithelium differentiated, specimens (%) (10^−9 M, 11 specimens): 7 (64); Pronephros differentiated, specimens (%) (10^−9 M, 11 specimens): 0 (0); Yolk-rich cell differentiated, specimens (%) (10^−9 M, 11 specimens): 8 (73); formation rate of pancreas (continuous treatment 10 days, any concentration tested): about 10%
